From patent publication US9815851B2, “Pyrrolo carboxamides as modulators of orphan nuclear receptor RAR-related orphan receptor-gamma (RORγ, NR1F3) activity and for the treatment of chronic inflammatory and autoimmune diseases” (PHENEX PHARMACEUTICALS AG, priority 2011, dated 2017)
Read-outs that look alike come from different tables or passages of the source.

Key:
RORγ = molecular target: T1, RORγ (UniProt P51449); assay: RORγ Gal4 Reporter Gene Assay in 293T cells (firefly and renilla luciferase); format: cell-based, human
T1 sequence (P51449 1-518): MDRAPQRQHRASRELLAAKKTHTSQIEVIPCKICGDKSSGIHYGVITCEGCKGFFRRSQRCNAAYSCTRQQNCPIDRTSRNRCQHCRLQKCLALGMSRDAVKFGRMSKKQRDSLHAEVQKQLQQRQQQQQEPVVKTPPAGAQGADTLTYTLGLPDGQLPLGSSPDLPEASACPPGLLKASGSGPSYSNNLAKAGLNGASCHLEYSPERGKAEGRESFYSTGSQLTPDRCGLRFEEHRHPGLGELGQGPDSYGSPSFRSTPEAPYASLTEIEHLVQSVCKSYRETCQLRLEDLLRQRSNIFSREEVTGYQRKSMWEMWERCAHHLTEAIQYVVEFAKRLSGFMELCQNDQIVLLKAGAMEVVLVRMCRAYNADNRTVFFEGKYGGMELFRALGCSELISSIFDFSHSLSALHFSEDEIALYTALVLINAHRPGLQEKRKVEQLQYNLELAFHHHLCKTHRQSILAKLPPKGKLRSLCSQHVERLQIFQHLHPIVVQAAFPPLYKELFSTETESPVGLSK

[1] = molecular target: T2, RORγ ligand binding domain (LBD) (Homo sapiens, UniProt P51449); assay: TR-FRET Activity Assay (ligand sensing, RORγ-LBD / coactivator peptide interaction, LANCE); format: biochemical
T2 construct: made in house; host or cells: E. coli BL-21 (BL3), vector pDEST15
T2 sequence (P51449 269-508 limits assumed): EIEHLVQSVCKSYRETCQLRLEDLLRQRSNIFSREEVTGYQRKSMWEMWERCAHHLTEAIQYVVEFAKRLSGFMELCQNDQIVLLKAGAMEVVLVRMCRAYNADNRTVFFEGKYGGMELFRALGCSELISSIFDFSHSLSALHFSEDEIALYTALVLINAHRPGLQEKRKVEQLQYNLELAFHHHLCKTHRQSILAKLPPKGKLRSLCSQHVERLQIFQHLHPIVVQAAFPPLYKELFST

[2] = second value of the cell, Gal4 reporter gene assay in 293T cells, firefly luciferase
[3] = third value of the cell, Gal4 reporter gene assay in 293T cells, renilla normalised luciferase
[4] = first value of the cell FRET/FF/REN, TR-FRET activity assay, read-out: pIC50 (FRET) (converted)

Cc1c(C(=O)NC2COC2)cc(-c2cc(C(C)C)c3c(c2)C(C)(C)N(C(C)C)S3(=O)=O)n1CC1CCCCC1 [1/22]
pIC50 (FF) (RORγ; [2]): 6.9
pIC50 (REN) (RORγ; [3]): 6.9
IC50 [1, 4]: 1 µM

CC(C)(C)NS(=O)(=O)c1ccc(-c2cc(C(=O)NC3CCOCC3)c(CF)n2CC2CCCCC2)cc1C(C)(C)C [17/118]
pIC50 (FF) (RORγ; [2]): 6.3
pIC50 (REN) (RORγ; [3]): 6.5
IC50 [1, 4]: 10 µM

Cc1c(C(=O)NC2CCOCC2)cc(-c2ccc(C(C)(C)C(=O)NC(C)(C)C)c(C(F)(F)F)c2)n1CC1CCCCC1 [17/132]
pIC50 (FF) (RORγ; [2]): 6.3
pIC50 (REN) (RORγ; [3]): 6.2
IC50 [1, 4]: 3.98 µM

Cc1c(C(=O)NCC2(O)CCOCC2)cc(-c2cc(C(=O)NC(C)(C)C)cc(C3(C)CC3)c2)n1CC1CCCCC1 [17/341]
pIC50 (FF) (RORγ): 6.1/7.4/7.6
pIC50 (REN) (RORγ): 6.1/7.4/7.6
IC50 [1]: 0.794 µM

Cc1c(C(=O)NC2CCOCC2)cc(-c2cc(C(=O)NC(C)C)cc(C(C)(C)O)c2)n1CC1CCCCC1 [17/323]
pIC50 (FF) (RORγ; [2]): 5.6
pIC50 (REN) (RORγ; [3]): 5.7
IC50 [1, 4]: 7.94 µM

Cc1c(C(=O)NCCC(=O)O)cc(-c2cc(C(C)(C)C)c3c(c2)C2(CCO3)CC2)n1CC1CCCCC1 [1/90]
pIC50 (FF) (RORγ; [2]): 7.0
pIC50 (REN) (RORγ; [3]): 6.9
IC50 [1, 4]: 2 µM

Cc1c(C(=O)NC2CCOCC2)cc(-c2ccc(S(=O)(=O)NC(C)(C)C)c3cnccc23)n1CC1CCCCC1 [17/369]
pIC50 (FF) (RORγ): 5.9/7.5/7.5
pIC50 (REN) (RORγ): 5.9/7.5/7.5
IC50 [1]: 1.26 µM

Cc1c(C(=O)NC2CCOCC2)cc(-c2ccc(S(=O)(=O)NC(C)(C)C)c3c(F)cccc23)n1CC1CCCCC1 [17/363]
pIC50 (FF) (RORγ; [2]): 7.4
pIC50 (REN) (RORγ; [3]): 7.5
IC50 [1, 4]: 1 µM

Cc1c(C(=O)NC2CCOCC2)cc(-c2cc(F)c(NS(=O)(=O)C(C)(C)C)c(C(F)(F)F)c2)n1CC1CCCCC1 [17/248]
pIC50 (FF) (RORγ; [2]): 6.4
pIC50 (REN) (RORγ; [3]): 7.3
IC50 [1, 4]: 2.51 µM

Cc1c(C(=O)NS(C)(=O)=O)cc(-c2cc(C(C)(C)C)cc(C(C)(C)C)c2)n1CC1CCCCC1 [1/51]
pIC50 (FF) (RORγ; [2]): 5.9
pIC50 (REN) (RORγ; [3]): 6.1
IC50 [1, 4]: 2.51 µM

CC(=NO)c1cc(-c2cc(C(=O)NC3CCOCC3)c(C)n2CC2CCCCC2)cc(C(C)(C)C)c1 [18/1]
pIC50 (FF) (RORγ; [2]): 7.5
pIC50 (REN) (RORγ; [3]): 7.7
IC50 [1, 4]: 0.794 µM

Cc1c(C(=O)NCC(O)(C(F)(F)F)C(F)(F)F)cc(-c2cc(C(C)(C)C)cc(C(C)(C)C)c2)n1CC1CCCCC1 [1/113]
pIC50 (FF) (RORγ; [2]): < 4.7
pIC50 (REN) (RORγ; [3]): < 4.7
IC50 [1, 4]: 3.98 µM

Cc1c(C(=O)NC2CCOCC2)cc(-c2cc(C(C)(C)O)cc(C3(C)CC3)c2)n1CC1CCCCC1 [1/43]
pIC50 (FF) (RORγ; [2]): 7.1
pIC50 (REN) (RORγ; [3]): 7.1
IC50 [1, 4]: 1 µM

Cc1c(C(=O)NCC(C)(C)C(=O)NS(C)(=O)=O)cc(-c2cc(C(C)(C)C)c3c(c2)C2(CCO3)CC2)n1CC1CCCCC1 [17/26]
pIC50 (FF) (RORγ; [2]): 7.3
pIC50 (REN) (RORγ; [3]): 7.3
IC50 [1, 4]: 1.58 µM

Cc1c(C(=O)NC2(C#N)CCOCC2)cc(-c2ccc(S(=O)(=O)NC(C)(C)C)c(C(C)(C)C)c2)n1CC1CCCCC1 [17/208]
pIC50 (FF) (RORγ): 6.4/6.6/6.6
pIC50 (REN) (RORγ): 6.4/6.6/6.6
IC50 [1]: 0.398 µM

Cc1c(C(=O)N[C@H]2C[C@H](C(=O)O)C2)cc(-c2cc(C(=O)NC(C)(C)C)cc3ccccc23)n1CC1CCCCC1 [17/189]
pIC50 (FF) (RORγ; [2]): 6.3
pIC50 (REN) (RORγ; [3]): 6.3
IC50 [1, 4]: 5.01 µM

COC(C)(C)CNC(=O)c1cc(-c2cc(C(C)(C)C)cc(C(C)(C)C)c2)n(CC2CCCCC2)c1C [1/35]
pIC50 (FF) (RORγ): 6.9/6.9/6.9
pIC50 (REN) (RORγ): 6.9/6.9/6.9
IC50 [1]: 0.126 µM

Cc1c(C(=O)NC2C[S+]([O-])C2)cc(-c2cc(C(C)(C)C)c3c(c2)C2(CCO3)CC2)n1CC1CCCCC1 (stereo not drawn) [17/25]
pIC50 (FF) (RORγ): 6.5/6.9/7.0
pIC50 (REN) (RORγ): 6.5/6.9/7.0
IC50 [1]: 0.316 µM

Cc1c(C(=O)N2CC2CO)cc(-c2cc(C(C)(C)C)cc(C(C)(C)C)c2)n1CC1CCCCC1 (stereo not drawn) [17/45]
pIC50 (FF) (RORγ): 6.0/6.5/6.4
pIC50 (REN) (RORγ): 6.0/6.5/6.4
IC50 [1]: 1 µM
